What was measured:
[1] = biological target: EGFR (ErbB1) T790M L858R (Homo sapiens (Human), UniProt P00533, L858R/T790M); experiment: Z'-LYTE kinase inhibition assay, EGFR L858R/T790M; type: biochemical; conditions: for inhibition at 1 µM: read-out: % inhibition against EGFR L858R/T790M (Compound at 1 μM); for inhibition at 0.0137 µM: read-out: % inhibition against EGFR L858R/T790M (Compound at 0.0137 μM); for IC50: read-out: IC50 against EGFR L858R/T790M
Procedure, shortened: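 IC50 taken from 10-point, 3-fold serial dilutions tested in 1% DMSO. The mutant kinase and peptide were prepared in HEPES pH 6.5 buffer with BRIJ-35, MgCl2, EGTA and NaN3, then reacted with ATP for 1 h at room temperature. Development reagent was added for a further hour before the fluorescence readout.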

[2] = tested on: HCC827 cells; experiment: cells; conditions: Homo sapiens, HCC827, 72 h, read-out: IC50 in HCC827 cells
Description: Taxol (as a positive control. Sigma) and compounds were dissolved in DMSO (Sigma), and the final concentration of DMSO in the medium was 1%. Tumor cells were plated in 96-well plates at densities of about 4000 cells/well of a 96-well plate and allowed to adhere/grow for 24 h. They were then treated with various concentrations of drug for 72 h, 3-(4,5-Dimethylthiazol-2-yl)-2,5-diphenyltetrazolium bromide (MTT, Sigma) was used to determine the number of viable cells at the time of compound addition and the number of cells remaining after 72 h compound exposure. The number of cells remaining after 72 h was compared to the number of viable cells at the time of compound addition by measuring the absorbance at 570 nm, allowing for the calculation of growth inhibition.
All concentrations of compounds were tested in triplicate and controls were averaged over 4 wells. IC50 was calculated by plotting the concentration of compound vs the percentage of inhibition in treated wells using GraphPad Prism 5.
The scale utilized in Tables 5 is as follows: +++ less than 100 nM; ++ between 100 nM and 500 nM; and + greater than 500 nM.

[3] = biological target: EGFR (ErbB1) (Homo sapiens (Human), UniProt P00533); experiment: Z'-LYTE kinase inhibition assay, EGFR; type: biochemical; conditions: for inhibition at 1 µM: read-out: % inhibition against EGFR (Compound at 1 μM); for inhibition at 0.041 µM: read-out: % inhibition against EGFR (Compound at 0.041 μM); for IC50: read-out: IC50 against EGFR
Procedure, shortened: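 IC50 values derived from 10-point, 3-fold compound dilution series (1% DMSO final) using Z'-LYTE fluorescence readout after 60-min development. Reaction: EGFR (1.1-5.25 ng) with 2 μM peptide, 60 min at room temperature in HEPES pH 7.5 buffer containing MgCl2, MnCl2, EGTA, DTT and BRIJ-35.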

[4] = tested on: H1975 cells; experiment: Inhibition of cancer cell growth, MTT assay, H1975; conditions: Homo sapiens, NCI-H1975, 72 h, read-out: IC50 in H1975 cells

EGFR (ErbB1) T790M L858R, sequence (P00533 25-1210 T790M/L858R): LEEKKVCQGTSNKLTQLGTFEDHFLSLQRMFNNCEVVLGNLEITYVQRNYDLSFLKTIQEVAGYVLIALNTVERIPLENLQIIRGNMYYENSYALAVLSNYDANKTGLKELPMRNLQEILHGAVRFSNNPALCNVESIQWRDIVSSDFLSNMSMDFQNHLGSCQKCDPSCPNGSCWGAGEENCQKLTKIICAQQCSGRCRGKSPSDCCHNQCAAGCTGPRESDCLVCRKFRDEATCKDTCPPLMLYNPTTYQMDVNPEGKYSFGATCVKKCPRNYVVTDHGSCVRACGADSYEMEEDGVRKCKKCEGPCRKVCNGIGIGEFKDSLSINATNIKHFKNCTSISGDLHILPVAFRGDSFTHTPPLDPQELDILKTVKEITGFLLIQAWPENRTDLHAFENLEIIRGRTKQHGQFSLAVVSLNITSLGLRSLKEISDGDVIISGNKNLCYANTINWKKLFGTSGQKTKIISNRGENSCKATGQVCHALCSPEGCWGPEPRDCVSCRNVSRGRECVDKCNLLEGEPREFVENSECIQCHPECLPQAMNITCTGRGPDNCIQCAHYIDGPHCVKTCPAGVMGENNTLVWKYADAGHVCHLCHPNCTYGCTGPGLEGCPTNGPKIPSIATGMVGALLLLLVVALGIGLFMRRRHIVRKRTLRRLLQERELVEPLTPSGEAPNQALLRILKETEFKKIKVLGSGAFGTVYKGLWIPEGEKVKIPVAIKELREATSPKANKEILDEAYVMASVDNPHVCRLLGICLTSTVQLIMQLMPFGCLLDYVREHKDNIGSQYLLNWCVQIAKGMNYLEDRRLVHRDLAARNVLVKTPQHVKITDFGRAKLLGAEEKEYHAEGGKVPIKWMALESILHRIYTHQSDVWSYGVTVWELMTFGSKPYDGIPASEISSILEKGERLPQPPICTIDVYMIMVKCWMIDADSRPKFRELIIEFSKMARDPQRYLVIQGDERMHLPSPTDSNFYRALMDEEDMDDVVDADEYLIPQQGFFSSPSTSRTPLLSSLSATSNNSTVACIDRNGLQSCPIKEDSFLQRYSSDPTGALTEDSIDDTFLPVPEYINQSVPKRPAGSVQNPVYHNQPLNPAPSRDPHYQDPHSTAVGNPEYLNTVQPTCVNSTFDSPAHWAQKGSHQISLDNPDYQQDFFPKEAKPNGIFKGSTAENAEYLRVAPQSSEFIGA
EGFR (ErbB1), sequence (P00533 25-1210): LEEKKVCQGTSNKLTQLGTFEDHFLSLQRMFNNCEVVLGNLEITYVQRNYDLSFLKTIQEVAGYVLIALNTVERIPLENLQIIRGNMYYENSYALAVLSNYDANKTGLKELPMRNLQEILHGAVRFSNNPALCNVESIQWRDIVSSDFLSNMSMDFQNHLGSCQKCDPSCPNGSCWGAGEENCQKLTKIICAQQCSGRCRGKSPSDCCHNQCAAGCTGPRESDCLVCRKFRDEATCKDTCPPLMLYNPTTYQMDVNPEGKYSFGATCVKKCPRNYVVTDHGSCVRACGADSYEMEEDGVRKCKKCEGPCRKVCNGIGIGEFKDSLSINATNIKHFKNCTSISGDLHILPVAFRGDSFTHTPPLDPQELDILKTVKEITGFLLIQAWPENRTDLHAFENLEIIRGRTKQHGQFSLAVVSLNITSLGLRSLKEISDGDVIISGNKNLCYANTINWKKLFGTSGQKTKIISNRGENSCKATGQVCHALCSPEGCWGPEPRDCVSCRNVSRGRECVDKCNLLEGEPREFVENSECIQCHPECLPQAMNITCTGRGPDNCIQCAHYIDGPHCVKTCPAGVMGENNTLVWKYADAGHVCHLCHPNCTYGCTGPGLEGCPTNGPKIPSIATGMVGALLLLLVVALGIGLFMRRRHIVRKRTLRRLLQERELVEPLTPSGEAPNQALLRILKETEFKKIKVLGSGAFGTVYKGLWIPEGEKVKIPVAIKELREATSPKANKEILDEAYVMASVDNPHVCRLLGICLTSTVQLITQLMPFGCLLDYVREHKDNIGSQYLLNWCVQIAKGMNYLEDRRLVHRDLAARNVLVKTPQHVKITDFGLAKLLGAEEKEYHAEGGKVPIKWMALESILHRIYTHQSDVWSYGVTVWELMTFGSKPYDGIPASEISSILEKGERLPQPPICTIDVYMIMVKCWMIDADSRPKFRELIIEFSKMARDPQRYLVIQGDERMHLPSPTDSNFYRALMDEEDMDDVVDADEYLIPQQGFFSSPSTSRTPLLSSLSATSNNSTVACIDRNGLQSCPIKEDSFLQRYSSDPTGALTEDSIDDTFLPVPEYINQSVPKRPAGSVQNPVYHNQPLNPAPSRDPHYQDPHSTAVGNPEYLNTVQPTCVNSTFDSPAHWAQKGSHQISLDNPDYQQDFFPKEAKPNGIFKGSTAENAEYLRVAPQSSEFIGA

SMILES | inhibition at 1 µM [1] | IC50 [2] | inhibition at 1 µM [3] | inhibition at 0.0137 µM [1] | IC50 [4] | IC50 [1] | inhibition at 0.041 µM [3] | IC50 [3]
C=CC(=O)Nc1cccc(-c2cccc3cnc(Nc4ccc(N5CCOCC5)cc4OC)nc23)c1 [Example C002, N-(3-(2-((2-methoxy-4-morpholinophenyl)amino)quinazolin-8-yl)phenyl)acrylamide] | > 50% | 0.1 to 0.5 µM | < 50% |  |  |  |  | 
C=CC(=O)Nc1cccc(-c2cccc3cnc(Nc4ccc(N5CCN(C)CC5)cc4OC)nc23)c1 [Example C003, N-(3-(2-((2-methoxy-4-(4-methylpiperazin-1-yl)phenyl)amino)quinazolin-8-yl)phenyl)acrylamide] | > 50% | < 0.1 µM | > 50% | > 50% | 0.1 to 0.5 µM | < 0.1 µM |  | 
C=CC(=O)Nc1cccc(-c2cccc3cnc(Nc4ccc(N5CCN(C)CC5)cc4F)nc23)c1 [Example C044, N-(3-(2-((2-fluoro-4-(4-methylpiperazin-1-yl)phenyl)amino)quinazolin-8-yl)phenyl)acrylamide] |  |  |  | > 50% | < 0.1 µM | < 0.1 µM | > 50% | < 0.1 µM
C=CC(=O)Nc1cccc(-c2nccc3cnc(Nc4ccc(N5CCOCC5)cc4)nc23)c1 [Example C012, N-(3-(2-((4-morpholinophenyl)amino)pyrido[3,4-d]pyrimidin-8-yl)phenyl)acrylamide] | > 50% | < 0.1 µM | < 50% |  | 0.1 to 0.5 µM |  |  | 
C=CC(=O)Nc1cccc(-c2cccc3cnc(Nc4ccc(N5CCN(CCO)CC5)cc4)nc23)c1 [Example C059, N-(3-(2-((4-(4-(2-hydroxyethyl)piperazin-1-yl)phenyl)amino)quinazolin-8-yl)phenyl)acrylamide] |  | < 0.1 µM |  |  | < 0.1 µM | < 0.1 µM | > 50% | < 0.1 µM
C=CC(=O)Nc1cccc(-c2cccc3cnc(Nc4ccc(N5CCN(CCF)CC5)cc4)nc23)c1 [Example C053, N-(3-(2-((4-(4-(2-fluoroethyl)piperazin-1-yl)phenyl)amino)quinazolin-8-yl)phenyl)acrylamide] | > 50% |  | > 50% | > 50% | < 0.1 µM |  | < 50% | 
C=CC(=O)Nc1cccc(-c2nccc3c(N)nc(Nc4ccc(N5CCOCC5)cc4)nc23)c1 [Example C005, N-(3-(4-amino-2-((4-morpholinophenyl)amino)pyrido[3,4-d]pyrimidin-8-yl)phenyl)acrylamide] | < 50% | 0.1 to 0.5 µM | > 50% |  | > 0.5 µM |  |  | 
C=CC(=O)Nc1cccc(-c2cccc3cnc(Nc4ccc(N5CCN(C)CC5)cc4)nc23)c1 [Example C021, N-(3-(2-((4-(4-methylpiperazin-1-yl)phenyl)amino)quinazolin-8-yl)phenyl)acrylamide] |  | < 0.1 µM |  |  | < 0.1 µM | < 0.1 µM | > 50% | < 0.1 µM
C=CC(=O)Nc1cccc(-c2cccc3cnc(Nc4ccc(N5CCN(C)CC5)nc4)nc23)c1 [Example C041, N-(3-(2-((6-(4-methylpiperazin-1-yl)pyridin-3-yl)amino)quinazolin-8-yl)phenyl)acrylamide] |  | < 0.1 µM |  |  | 0.1 to 0.5 µM | < 0.1 µM | > 50% | < 0.1 µM

More lines, main results first:

inhibition at 1 µM [1] | IC50 [2] | inhibition at 1 µM [3] | inhibition at 0.0137 µM [1] | IC50 [4] | SMILES | IC50 [1] | inhibition at 0.041 µM [3] | IC50 [3]
< 50% | > 0.5 µM | < 50% |  | > 0.5 µM | Fc1ccccc1-c1cccc2cnc(Nc3ccc(N4CCOCC4)cc3)nc12 [Example C010, 8-(2-fluorophenyl)-N-(4-morpholinophenyl)quinazolin-2-amine] |  |  | 
< 50% | > 0.5 µM | < 50% |  | > 0.5 µM | Clc1ccccc1-c1cccc2cnc(Nc3ccc(N4CCOCC4)cc3)nc12 [Example C011, 8-(2-chlorophenyl)-N-(4-morpholinophenyl)quinazolin-2-amine] |  |  | 
> 50% | < 0.1 µM | > 50% | < 50% | 0.1 to 0.5 µM | C=CC(=O)Nc1cccc(-c2cccc3cnc(Nc4ccc(N5CCOCC5)cc4)nc23)c1 [Example C001, N-(3-(2-((4-morpholinophenyl)amino)quinazolin-8-yl)phenyl)acrylamide] | < 0.1 µM |  | 
< 50% | > 0.5 µM | < 50% |  | > 0.5 µM | Fc1ccc(Cl)cc1-c1cccc2cnc(Nc3ccc(N4CCOCC4)cc3)nc12 [Example C007, 8-(5-chloro-2-fluorophenyl)-N-(4-morpholinophenyl)quinazolin-2-amine] |  |  | 
< 50% | > 0.5 µM | < 50% |  | > 0.5 µM | Fc1cccc(-c2cccc3cnc(Nc4ccc(N5CCOCC5)cc4)nc23)c1 [Example C009, 8-(3-fluorophenyl)-N-(4-morpholinophenyl)quinazolin-2-amine] |  |  | 
< 50% | > 0.5 µM | < 50% |  | > 0.5 µM | Clc1cccc(-c2cccc3cnc(Nc4ccc(N5CCOCC5)cc4)nc23)c1 [Example C008, 8-(3-chlorophenyl)-N-(4-morpholinophenyl)quinazolin-2-amine] |  |  | 
> 50% | > 0.5 µM | < 50% |  | > 0.5 µM | c1ccc(-c2cccc3cnc(Nc4ccc(N5CCOCC5)cc4)nc23)cc1 [Example C004, N-(4-morpholinophenyl)-8-phenylquinazolin-2-amine] |  |  | 

Source: US10172868B2, “Substituted quinazolines for inhibiting kinase activity” (NeuPharma, Inc., priority 2013, dated 2019)
